In patent publication US12685312B2, “Sulfonamide apyrase inhibitors” (Texas Crop Science, Inc., priority 2022, dated 2026):

System: apyrase
Assay: Screen for apyrase inhibitors (Method 1, in vitro phosphate-release absorbance assay)
Assay type: biochemical
Settings: inhibitor conc at 1 mM stock, 1 hr room temperature, absorbance 630 nm; rounded average of two assay results
How it was run: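 Phosphate-release colorimetric assay (Windsor method) in 60 mM Hepes, 3 mM MgCl2, 3 mM CaCl2, 3 mM ATP, pH 6.5, with compound or DMSO control added. Released phosphate developed with ammonium molybdate and ascorbic acid/TCA, then stopped with citrate/acetic acid.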

Point of comparison: O=C(Nc1ccc2c(c1)OCO2)c1ccc(Cl)c(S(=O)(=O)N2CCc3ccccc32)c1 [I-562, N-(benzo[d][1,3]dioxol-5-yl)-4-chloro-3-(indolin-1-ylsulfonyl)benzamide], “% Inhibition of Apyrase” value 51%. Against it:
- COc1ccc(S(=O)(=O)N2CCc3ccccc32)cc1C(=O)Nc1cccc(Br)c1 [I-525, N-(3-bromophenyl)-5-(indolin-1-ylsulfonyl)-2-methoxybenzamide] — higher, 55%
- CC1Cc2ccccc2N1S(=O)(=O)c1cccc(C(=O)Nc2ccc(S(=O)(=O)N(C)C)cc2)c1 (centres unmarked) [I-526, N-(4-(N,N-dimethylsulfamoyl)phenyl)-3-((2-methylindolin-1-yl)sulfonyl)benzamide] — higher, 55%
- O=C(Nc1cccc(S(=O)(=O)N2CCOCC2)c1)c1cccc(S(=O)(=O)N2CCc3ccccc32)c1 [I-527, 3-(indolin-1-ylsulfonyl)-N-(3-(morpholinosulfonyl)phenyl)benzamide] — higher, 55%
- CN(c1ccc(F)cc1)S(=O)(=O)c1ccc(Cl)c(C(=O)Nc2ccc(F)c(Cl)c2)c1 [I-528, 2-chloro-N-(3-chloro-4-fluorophenyl)-5-(N-(4-fluorophenyl)-N-methylsulfamoyl)benzamide] — higher, 55%
- NS(=O)(=O)c1cccc(NC(=O)c2cccc(S(=O)(=O)N3CCc4ccccc43)c2)c1 [I-529, 3-(indolin-1-ylsulfonyl)-N-(3-sulfamoylphenyl)benzamide] — higher, 55%
- COc1cc(OC)c(NS(=O)(=O)c2cc(C(=O)Nc3ccc(OC(F)(F)F)cc3)ccc2C)cc1Cl [I-530, 3-(N-(5-chloro-2,4-dimethoxyphenyl)sulfamoyl)-4-methyl-N-(4-(trifluoromethoxy)phenyl)benzamide] — higher, 55%
- O=C(Nc1ccc2c(c1)OC1(CCCC1)O2)c1cccc(S(=O)(=O)Nc2ccc3c(c2)OCO3)c1 [I-531, 3-(N-(benzo[d][1,3]dioxol-5-yl)sulfamoyl)-N-(spiro[benzo[d][1,3]dioxole-2,1′-cyclopentan]-5-yl)benzamide] — higher, 55%
- N#Cc1cccc(NC(=O)c2cccc(S(=O)(=O)Nc3cc(C(F)(F)F)ccc3Cl)c2)c1 [I-532, 3-(N-(2-chloro-5-(trifluoromethyl)phenyl)sulfamoyl)-N-(3-cyanophenyl)benzamide] — higher, 55%
- CC1Cc2ccccc2N1C(=O)c1cccc(S(=O)(=O)Nc2ccccc2F)c1 (centres unmarked) [I-533, N-(2-fluorophenyl)-3-(2-methylindoline-1-carbonyl)benzenesulfonamide] — higher, 54%
- CC1Cc2ccccc2N1S(=O)(=O)c1cccc(C(=O)Nc2ccccc2C(C)(C)C)c1 (centres unmarked) [I-534, N-(2-(tert-butyl)phenyl)-3-((2-methylindolin-1-yl)sulfonyl)benzamide] — higher, 54%
- O=C(Nc1ccc(-n2cnnn2)cc1)c1cccc(S(=O)(=O)N2CCc3ccccc32)c1 [I-535, N-(4-(1H-tetrazol-1-yl)phenyl)-3-(indolin-1-ylsulfonyl)benzamide] — higher, 54%
- CC1Cc2ccccc2N1S(=O)(=O)c1cccc(C(=O)Nc2ccc3c(c2)OCCO3)c1 (centres unmarked) [I-536, N-(2,3-dihydrobenzo[b][1,4]dioxin-6-yl)-3-((2-methylindolin-1-yl)sulfonyl)benzamide] — higher, 54%
- O=C(Nc1cccc(F)c1)c1ccc(Cl)c(S(=O)(=O)N2CCc3ccccc32)c1 [I-537, 4-chloro-N-(3-fluorophenyl)-3-(indolin-1-ylsulfonyl)benzamide] — higher, 54%
- COc1ccc(S(=O)(=O)N2CCc3ccccc32)cc1C(=O)Nc1ccccc1F [I-538, N-(2-fluorophenyl)-5-(indolin-1-ylsulfonyl)-2-methoxybenzamide] — higher, 54%
- O=C(Nc1ccc2c(c1)CCC2)c1cccc(S(=O)(=O)N2CCc3ccccc32)c1 [I-539, N-(2,3-dihydro-1H-inden-5-yl)-3-(indolin-1-ylsulfonyl)benzamide] — higher, 54%
- COc1ccc(N(C)S(=O)(=O)c2cccc(C(=O)N3CCc4ccccc43)c2)cc1 [I-540, 3-(indoline-1-carbonyl)-N-(4-methoxyphenyl)-N-methylbenzenesulfonamide] — higher, 54%
- CCOc1ccc(NC(=O)c2cccc(S(=O)(=O)Nc3ccc(OCC)cc3)c2)cc1 [I-541, N-(4-ethoxyphenyl)-3-(N-(4-ethoxyphenyl)sulfamoyl)benzamide] — higher, 54%
- O=C(c1cccc(S(=O)(=O)Nc2cccc(Cl)c2)c1)N1CCc2ccccc21 [I-542, N-(3-chlorophenyl)-3-(indoline-1-carbonyl)benzenesulfonamide] — higher, 54%
- Cc1ccc(S(=O)(=O)Nc2ccc(F)cc2)cc1C(=O)N1CCc2ccccc21 [I-543, N-(4-fluorophenyl)-3-(indoline-1-carbonyl)-4-methylbenzenesulfonamide] — higher, 54%
- Cc1ccc(S(=O)(=O)Nc2ccc(F)cc2)cc1C(=O)N1c2ccccc2CC1C (centres unmarked) [I-544, N-(4-fluorophenyl)-4-methyl-3-(2-methylindoline-1-carbonyl)benzenesulfonamide] — higher, 54%
- COc1ccc(C(=O)N2c3ccccc3CC2C)cc1S(=O)(=O)Nc1ccc(C)cc1 (centres unmarked) [I-545, 2-methoxy-5-(2-methylindoline-1-carbonyl)-N-(p-tolyl)benzenesulfonamide] — higher, 53%
- COc1ccc(N(C)S(=O)(=O)c2cccc(C(=O)Nc3ccc(OC)c(Cl)c3)c2)cc1 [I-546, N-(3-chloro-4-methoxyphenyl)-3-(N-(4-methoxyphenyl)-N-methylsulfamoyl)benzamide] — higher, 53%
- Cc1ccc(NC(=O)c2cccc(S(=O)(=O)N3c4ccccc4CC3C)c2)c(C)c1 (centres unmarked) [I-547, N-(2,4-dimethylphenyl)-3-((2-methylindolin-1-yl)sulfonyl)benzamide] — higher, 53%
- COc1ccc(Cl)cc1NC(=O)c1cccc(S(=O)(=O)N2CCc3ccccc32)c1 [I-548, N-(5-chloro-2-methoxyphenyl)-3-(indolin-1-ylsulfonyl)benzamide] — higher, 53%
- O=C(Nc1cc(Cl)ccc1N1CCOCC1)c1cccc(S(=O)(=O)N2CCc3ccccc32)c1 [I-549, N-(5-chloro-2-morpholinophenyl)-3-(indolin-1-ylsulfonyl)benzamide] — higher, 53%
- CN(C)S(=O)(=O)c1cccc(NC(=O)c2cccc(S(=O)(=O)N3CCc4ccccc43)c2)c1 [I-550, N-(3-(N,N-dimethylsulfamoyl)phenyl)-3-(indolin-1-ylsulfonyl)benzamide] — higher, 53%
- O=C(c1cc(S(=O)(=O)Nc2cccc(Cl)c2)c(Cl)cc1Cl)N1CCCc2ccccc21 [I-551, 2,4-dichloro-N-(3-chlorophenyl)-5-(1,2,3,4-tetrahydroquinoline-1-carbonyl)benzenesulfonamide] — higher, 53%
- Cc1ccc(NC(=O)c2cccc(S(=O)(=O)N3CCc4ccccc43)c2)c(OCC2CCCO2)c1 (centres unmarked) [I-552, 3-(indolin-1-ylsulfonyl)-N-(4-methyl-2-((tetrahydrofuran-2-yl)methoxy)phenyl)benzamide] — higher, 53%
- CC(C)n1ncc2cc(NC(=O)c3cccc(S(=O)(=O)Nc4ccc5c(c4)OCO5)c3)cnc21 [I-553, 3-(N-(benzo[d][1,3]dioxol-5-yl)sulfamoyl)-N-(1-isopropyl-1H-pyrazolo[3,4-b]pyridin-5-yl)benzamide] — higher, 52%
- O=C(Nc1ccc(S(=O)(=O)Nc2ncccn2)cc1)c1cccc(S(=O)(=O)N2CCc3ccccc32)c1 [I-554, 3-(indolin-1-ylsulfonyl)-N-(4-(N-(pyrimidin-2-yl)sulfamoyl)phenyl)benzamide] — higher, 52%
- Cc1cccc(NC(=O)c2ccc(Cl)c(S(=O)(=O)N3CCc4ccccc43)c2)c1 [I-555, 4-chloro-3-(indolin-1-ylsulfonyl)-N-(m-tolyl)benzamide] — higher, 52%
- CC1Cc2ccccc2N1S(=O)(=O)c1cccc(C(=O)Nc2cccc(S(=O)(=O)N(C)C)c2)c1 (centres unmarked) [I-556, N-(3-(N,N-dimethylsulfamoyl)phenyl)-3-((2-methylindolin-1-yl)sulfonyl)benzamide] — higher, 52%
- N#Cc1ccc(NC(=O)c2ccc(Cl)c(S(=O)(=O)N3CCc4ccccc43)c2)cc1 [I-557, 4-chloro-N-(4-cyanophenyl)-3-(indolin-1-ylsulfonyl)benzamide] — higher, 52%
- Cc1ccc(N(C)S(=O)(=O)c2cccc(C(=O)N3CCc4ccccc43)c2)cc1 [I-558, 3-(indoline-1-carbonyl)-N-methyl-N-(p-tolyl)benzenesulfonamide] — higher, 52%
- O=C(c1cc(S(=O)(=O)Nc2ccc(Cl)cc2)ccc1Cl)N1CCCc2ccccc21 [I-559, 4-chloro-N-(4-chlorophenyl)-3-(1,2,3,4-tetrahydroquinoline-1-carbonyl)benzenesulfonamide] — higher, 52%
- Cc1cccc(NS(=O)(=O)c2cc(C(=O)Nc3cccc(C#N)c3)c(Cl)cc2Cl)c1 [I-560, 2,4-dichloro-N-(3-cyanophenyl)-5-(N-(m-tolyl)sulfamoyl)benzamide] — higher, 52%
- COc1ccc2c(c1)CCCN2C(=O)c1cccc(S(=O)(=O)Nc2ccccc2F)c1 [I-561, N-(2-fluorophenyl)-3-(6-methoxy-1,2,3,4-tetrahydroquinoline-1-carbonyl)benzenesulfonamide] — the same, 51%
- COc1ccc(N(C)S(=O)(=O)c2cccc(C(=O)Nc3ccc4c(c3)OCCO4)c2)cc1 [I-563, N-(2,3-dihydrobenzo[b][1,4]dioxin-6-yl)-3-(N-(4-methoxyphenyl)-N-methylsulfamoyl)benzamide] — the same, 51%
- CCOc1ccc(N(C)S(=O)(=O)c2ccc(C)c(C(=O)N3c4ccccc4CC3C)c2)cc1 (centres unmarked) [I-564, N-(4-ethoxyphenyl)-N,4-dimethyl-3-(2-methylindoline-1-carbonyl)benzenesulfonamide] — the same, 51%
- O=C(Nc1ccc2c(c1)OCCCO2)c1ccc(Cl)c(S(=O)(=O)N2CCc3ccccc32)c1 [I-565, 4-chloro-N-(3,4-dihydro-2H-benzo[b][1,4]dioxepin-7-yl)-3-(indolin-1-ylsulfonyl)benzamide] — the same, 51%
